How the values were obtained:
Type in all cases: cell-based
human skin keratinocytes [1] = experiment: UVA-induced IL-1 release in keratinocytes, ELISA; conditions: UVA 20 J/cm^2
Protocol: This example provides results showing the anti-inflammatory effect of Tsuga extracts when inflammation is induced in keratinocytes. The amount of interleukin-1 alpha (IL-1) released is used to quantify the inflammatory reaction after exposure of the keratinocytes to UVA light irradiation. IL-1 release was evaluated in human skin keratinocytes (Cascade Biologics, Portland, Oreg.) and was measured using the Quantikine hIL1 ELISA kit (R&D Systems, Minneapolis, Minn.). Keratinocytes were first grown in a 96-well plate using complete […] medium with different concentrations of extracts for 48 hours at 37° C. in a humidified 5% CO2 atmosphere. All extracts and controls were diluted in complete […] medium. Cells were rinsed with HBSS and irradiated with UVA at 20 J/cm^2. HBSS was removed and complete […] medium containing controls or extracts was added to respective wells. Plates were incubated for another 24 hours. ELISA was performed following the manufacturer's recommendations (R&D Systems). The absorbance was read at 450 nm on the Spectrafluor Plus plate reader (Tecan). […] The inhibition of IL-1 release is proportional to the anti-inflammatory effect.

human skin keratinocytes [2] = experiment: IL-8 release from keratinocytes (irritation potential), ELISA; conditions: 5 μM; basal level 18 pg/ml
Protocol: This example provides results showing the non-irritating quality of the Tsuga extracts. The amount of interleukin-8 (IL-8) released in the following assay is used to quantify a possible irritating reaction after exposure of keratinocytes to the Tsuga extract.
Release of IL-8 was evaluated on human skin keratinocytes (Cascade Biologics, Portland, Oreg., catalog number C-005) and measured using the Quantikine hIL8 ELISA kit (R&D Systems, Minneapolis, Minn., catalog number D8000C). Keratinocytes were first grown in a 96-well plate using complete medium M154 (M154+HKGS cat S-001 from Cascade Biologics). This medium was used as a negative (non-irritating) control, while 2.5 μM phorbol 12-myristate 13-acetate (PMA) (Sigma-Aldrich Canada, Oakville, Ontario) was used as a positive (irritating) control. All extracts and controls were diluted in complete medium M154. Cells were seeded into 96-well plates at a concentration of 8×10^3 cells/well in complete M154 medium and plates were incubated for 48 hours at 37° C. in a humidified 5% CO2 atmosphere. The medium was removed and 200 μl of Tsuga extract or control were added to the wells (all performed in duplicate) and then the plates were incubated for 48 hours at 37° C. in a humidified 5% CO2 atmosphere. […] The absorbance was read at 450 nm on the Spectrafluor Plus plate reader (Tecan). […]

human skin fibroblasts = experiment: Inhibition of contractile force of fibroblasts in collagen I gel; conditions: Skin fibroblast, read-out: inhibition of tractional force of fibroblasts
From the text: The skin model comprises human skin fibroblasts imbedded in a collagen I matrix and provides an in vitro representation of dermal contraction resulting from tractional forces generated by fibroblasts. Partial or permanent dermal contraction can play a role in the formation of wrinkles. Thus, extracts capable of inhibiting the contractile force of fibroblasts, have the potential to provide a dermo-decontraction anti-ageing effect in the skin.
The ability of the Tsuga extracts to inhibit the contractile force of fibroblasts was evaluated on human skin fibroblasts (Cascade Biologics, Portland, Oreg.). The cells were imbedded in a collagen I matrix to create a derm-like environment. Fibroblasts were grown in complete M106 to 80% confluence. Free-floating fibroblast-populated collagen gels were prepared in 24-well plates. 500 μl of gel contains 2.5 mg/ml of collagen I (rat tail, BD Biosciences, Bedford, Mass.), M106 5X, NaOH 0.7N; 1×10^5 cells and fetal bovine serum (FBS) at 20% (Wisent, St-Bruno, QC, Canada). The mix was kept on ice until distribution. The derm-like gels were allowed to polymerize for 1 hour at 37° C. in a humidified 5% CO2 atmosphere. After incubation, the gels were detached from the wells. […] Contraction was measured beginning at day 5. Contracting gels were digitally photographed and the gel areas were calculated using ImagePro software.

HUVECs = experiment: Cord formation assay on Matrigel (angiogenesis); conditions: Homo sapiens, HUVEC
Protocol: 60 μl Matrigel® was added to a 96-well plate flat bottom plate (Costar 3096) and incubated for 30 minutes at 37° C. in a 5% CO2 atmosphere. A mixture of HUVECs and Tsuga extract, or a positive control (Fumagillin or GM6001) were added to each well. HUVECs were prepared as suspensions of 2.5×10^5 cells per ml in EGM-2, then 500 μl of HUVECs preparation was mixed with 500 μl of 2× of the desired dilution of Tsuga extract or control drug and 200 μl were added to each well. Four dilutions of each extract were tested in duplicate. After 18-24 hours at 37° C. in 5% CO2, the cells had migrated and organized into cords. The number of cell junctions was counted in 3 randomly selected fields and the inhibition of cord formation is calculated as follows: [(A−B)/A]×100, where A is the average number of cell junctions per field in the control well and B is the average number of cell junctions per field in the treated wells.

O=C(O)c1ccccc1O [salicylic acid]
inhibition of IL-1 release (human skin keratinocytes [1]; 0.025%): 11% | inhibition of IL-1 release (human skin keratinocytes [1]; 0.05%): 27%

CCCCCCCCCCCCCC(=O)O[C@@H]1[C@@H](C)[C@@]2(O)[C@@H](C=C(CO)C[C@]3(O)C(=O)C(C)=C[C@@H]23)[C@@H]2C(C)(C)[C@]12OC(C)=O [PMA, phorbol 12-myristate 13-acetate]
IL-8 release (human skin keratinocytes [2]): 282 pg/mL

CNC(=O)[C@H](Cc1c[nH]c2ccccc12)NC(=O)[C@@H](CC(=O)NO)CC(C)C [GM6001]
inhibition at 50 µM (human skin fibroblasts): 85% | inhibition at 25 µM (HUVECs; 25 μM): 78%

CO[C@@H]1[C@H](OC(=O)/C=C/C=C/C=C/C=C/C(=O)O)CC[C@]2(CO2)[C@H]1[C@@]1(C)O[C@@H]1CC=C(C)C [Fumagillin]
inhibition at 15 µg/mL (HUVECs; 15 μg/ml): 100%

— patent US20110177014A1, “EXTRACTS FROM PLANTS OF THE TSUGA GENUS AND USES THEREOF IN THE TREATMENT OF INFLAMMATION, IRRITATION AND/OR INFECTION” (BIOPHARMACOPAE DESIGN INTERNATIONAL INC., priority 2008, published 2011)
